Data from patent US20250270182A1, “Composition Comprising an Antimicrobial Agent and an Alkyl Ketal Ester Compound” (Symrise AG, priority 2022, published 2025).

Columns and labels:
Test in all cases: Minimum Inhibitory Concentration (MIC) test, growth inhibition in 96 well plates
Assay type in all cases: cell-based
Staphylococcus aureus = settings: lowest concentration with complete growth inhibition, optical density, substances solved in DMSO; for MIC: Staphylococcus aureus, read-out: MIC in ppm Staphylococcus aureus
Protocol: (§1) The Minimum Inhibitory Concentration (MIC) test is a test on growth inhibition. The estimation of MICs is executed in 96 well plates. Through the comparison of bacterial growth with positive and negative controls via optical density (OD), different concentrations of given test substances are evaluated. Bacteria were cultivated under adjusted conditions based on information of the German Collection of Microorganisms and Cell Cultures (DSMZ) and stored in 10% or 50% glycerol prior to use. Afterwards, the following method was applied: Growth medium (according to microorganism) was added to each well of the microplate. Then, the test-substances, solved in DMSO, were added in different concentrations, positive controls (water controls only with medium), solvent controls (DMSO controls only with medium), and negative controls (benchmarks according to organism). Finally, the microorganisms were added in a concentration of 1 to 6×10^6 CFU/ml (CFU=colony forming units). The incubation of the microplates was carried out at appropriate conditions. According to the resulting growth, substance concentrations are labelled either as inhibiting or not and MIC is defined as the lowest concentration where a complete growth inhibition is visible. Experiments at concentration limits (highest concentration labelled as growth and lowest concentration labelled as inhibiting) are performed at least twice. The synergistic activity of NxtSolv 320 (Ethyl propylene glycol acetal levulinate) and Nxt Solv 420 (Ethyl glycerine acetal levulinate) in combination with different antimicrobial compounds was determined by measuring the Minimum Inhibitory Concentrations (MIC) according to the method as described above. […] In special occasions, intermediate dilution steps were performed to further improve the MIC resolution. […] To verify that the tested combinations act synergistically against microorganisms, corresponding experiments were conducted with Staphylococcus aureus, Candida albicans, Aspergillus brasiliensis, Pseudomonas aeruginosa and Escherichia coli. […] In order to calculate the synergy index with MIC values, the Kull equation was used as follows: […]

Candida albicans = settings: lowest concentration with complete growth inhibition, optical density, substances solved in DMSO; for MIC: Candida albicans, read-out: MIC in ppm Candida albicans
Protocol: as §1

Pseudomonas aeruginosa = settings: lowest concentration with complete growth inhibition, optical density, substances solved in DMSO; for MIC: Pseudomonas aeruginosa, read-out: MIC in ppm Pseudomonas aeruginosa
Protocol: as §1

Escherichia coli = settings: lowest concentration with complete growth inhibition, optical density, substances solved in DMSO; for MIC: Escherichia coli, read-out: MIC in ppm Escherichia coli
Protocol: as §1

Aspergillus brasiliensis = settings: lowest concentration with complete growth inhibition, optical density, substances solved in DMSO; for MIC: Aspergillus brasiliensis, read-out: MIC in ppm Aspergillus brasiliensis
Protocol: as §1

MIC in ppm Staphylococcus aureus (Staphylococcus aureus) | MIC in ppm Candida albicans (Candida albicans) | MIC in ppm Pseudomonas aeruginosa (Pseudomonas aeruginosa) | MIC in ppm Escherichia coli (Escherichia coli) | MIC in ppm Aspergillus brasiliensis (Aspergillus brasiliensis) | MIC (Staphylococcus aureus) [mg/mL] | MIC (Candida albicans) [mg/mL] | MIC (Pseudomonas aeruginosa) [mg/mL] | MIC (Escherichia coli) [mg/mL] | MIC (Aspergillus brasiliensis) [mg/mL] | Structure (SMILES)
5,000 ppm | 6,000 ppm | 4,000 ppm | 2,500 ppm | 2,500 ppm |  |  |  |  |  | CC(=O)c1ccc(O)cc1 [4-Hydroxyacetophenone]
 |  |  |  |  | 17.5 | 25 | 35 | 25 | 15 | CCOC(=O)CCC1(C)OCC(CO)O1 (centres unmarked) [Ethyl glycerine acetal levulinate, ethyl glycerine acetal levulinate]
1,000 ppm | 1,000 ppm | 50,000 ppm | 2,500 ppm | 1,000 ppm |  |  |  |  |  | CCCCC(CC)COCC(O)CO (centres unmarked) [Ethylhexylglycerin]
 |  |  |  |  | 35 | 12.5 | 30 | 15 | 17.5 | CCCC(O)CO (centres unmarked) [1,2-Pentanediol]
